Source: article PMC7377239, “Cardiovascular Effects of Polychlorinated Biphenyls and Their Major Metabolites” (Environmental Health Perspectives, 2020)
Read-outs that look alike come from different tables or passages of the source.

Tests used:
HUVECs [1] = test: High-content imaging cytotoxicity in HUVECs, 24 h; format: cell-based, human; settings: Homo sapiens, HUVEC, 24 h, HUVECs; for viability at 0.01 µM / activity at 0.01 µM / viability at 0.1 µM / activity at 0.1 µM / viability at 1 µM / activity at 1 µM / viability at 10 µM / activity at 10 µM / viability at 100 µM / activity at 100 µM: 0.00 µM = 100.00; for viability at 0.1 µM / activity at 0.1 µM: 0.10 µM; for minimal effective concentration: top concentration 100.00 µM
Outline: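 Point-of-departure values derive from four-parameter logistic fits of vehicle-normalized imaging phenotypes (Hoechst 33342, MitoTracker Orange, calcein AM). The fits follow 24 h exposure of HUVEC monolayers at 37°C and 5% CO2, with a top tested concentration of 100μM.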

HUVECs [2] = test: Tube formation (tubulogenesis) assay in HUVECs, 18 h; format: cell-based, human; settings: Homo sapiens, HUVEC, 18 h, HUVECs; for activity at 0.1 µM: 0.10 µM; for minimal effective concentration: top concentration 100.00 µM
Outline: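 HUVECs (passage 1–5) seeded on reduced-growth-factor basement membrane and exposed to compounds overnight at 37°C, 5% CO2, in 2× maintenance medium with 12.5 ng/mL VEGF; 0.5% DMSO vehicle. Calcein AM-stained tube networks imaged and analysed; vehicle-normalized readouts fit to four-parameter logistic, POD set at one SD of vehicle means.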

[3] = 24 hr, read-out: huvec.cyto.24hr
[4] = 24 hr, read-out: huvec.mito.24hr
[5] = 24 hr, read-out: huvec.mitoint.24hr
[6] = 24 hr, read-out: huvec.nma.24hr
[7] = 24 hr, read-out: huvec.cyto.24hr POD
[8] = 24 hr, read-out: huvec.mito.24hr POD
[9] = 24 hr, read-out: huvec.mitoint.24hr POD
[10] = 24 hr, read-out: huvec.nma.24hr POD
[11] = 24 hrs, read-out: huvec.tc.24hrs
[12] = 24 hrs, read-out: huvec.tc.24hrs POD
[13] = 0.00 µM = 100.00, read-out: huvec.mtl.18hr
[14] = 0.00 µM = 100.00, read-out: huvec.tlps.18hr
[15] = 0.00 µM = 100.00, read-out: huvec.tta.18hr
[16] = 0.00 µM = 100.00, read-out: huvec.ttl.18hr

For COc1ccc(-c2cccc(Cl)c2)cc1Cl [4-OMe PCB11], the viability at 0.01 µM (HUVECs [1]; [3]) was 96.4%, the activity at 0.01 µM (HUVECs [1]; [4]) was 94.6% and the activity at 0.01 µM (HUVECs [1]; [5]) was 95.4%. The activity at 0.01 µM (HUVECs [1]; [6]) was 96.3%, the viability at 0.1 µM (HUVECs [1]; [3]) was 98.3% and the activity at 0.1 µM (HUVECs [1]; [4]) was 98.5%. It also gave an activity at 0.1 µM (HUVECs [1]; [5]) of 106%, an activity at 0.1 µM (HUVECs [1]; [6]) of 101% and a viability at 1 µM (HUVECs [1]; [3]) of 101%. For the same compound, the activity at 1 µM (HUVECs [1]; [4]) was 100%, the activity at 1 µM (HUVECs [1]; [5]) was 103% and the activity at 1 µM (HUVECs [1]; [6]) was 100%. The viability at 10 µM (HUVECs [1]; [3]) was 89.7%, the activity at 10 µM (HUVECs [1]; [4]) was 86.4% and the activity at 10 µM (HUVECs [1]; [5]) was 95.6%. It also gave an activity at 10 µM (HUVECs [1]; [6]) of 92.7%, a viability at 100 µM (HUVECs [1]; [3]) of 56.3% and an activity at 100 µM (HUVECs [1]; [4]) of 44%. It also gave an activity at 100 µM (HUVECs [1]; [5]) of 65.8%, an activity at 100 µM (HUVECs [1]; [6]) of 73.1% and a minimal effective concentration (HUVECs [1]; [7]) of 7.59 µM. It also gave a minimal effective concentration (HUVECs [1]; [8]) of 6.19 µM, a minimal effective concentration (HUVECs [1]; [9]) of 16 µM and a minimal effective concentration (HUVECs [1]; [10]) of 6.39 µM. For the same compound, the viability at 0.01 µM (HUVECs [1]; [11]) was 96.4%, the viability at 0.1 µM (HUVECs [1]; [11]) was 98.4% and the viability at 1 µM (HUVECs [1]; [11]) was 101%. The viability at 10 µM (HUVECs [1]; [11]) was 89.7%, the viability at 100 µM (HUVECs [1]; [11]) was 56.4% and the minimal effective concentration (HUVECs [1]; [12]) was 7.59 µM. It also gave an activity at 0.01 µM (HUVECs [2]; [13]) of 124%, an activity at 0.01 µM (HUVECs [2]; [14]) of 137% and an activity at 0.01 µM (HUVECs [2]; [15]) of 110%. It also gave an activity at 0.01 µM (HUVECs [2]; [16]) of 93.8%, an activity at 0.1 µM (HUVECs [2]; [13]) of 107% and an activity at 0.1 µM (HUVECs [2]; [14]) of 117%. For the same compound, the activity at 0.1 µM (HUVECs [2]; [15]) was 99.7%, the activity at 0.1 µM (HUVECs [2]; [16]) was 89.8% and the activity at 1 µM (HUVECs [2]; [13]) was 102%. The activity at 1 µM (HUVECs [2]; [14]) was 99.7%, the activity at 1 µM (HUVECs [2]; [15]) was 108% and the activity at 1 µM (HUVECs [2]; [16]) was 99.4%. For the same compound, the activity at 10 µM (HUVECs [2]; [13]) was 89.2%, the activity at 10 µM (HUVECs [2]; [14]) was 97.9% and the activity at 10 µM (HUVECs [2]; [15]) was 78.8%. For the same compound, the activity at 10 µM (HUVECs [2]; [16]) was 67.3%, the activity at 100 µM (HUVECs [2]; [13]) was 71% and the activity at 100 µM (HUVECs [2]; [14]) was 60.6%. The activity at 100 µM (HUVECs [2]; [15]) was 70.4%, the activity at 100 µM (HUVECs [2]; [16]) was 60.2% and the minimal effective concentration (HUVECs [2]; read-out: huvec.mtl.18hr POD) was 9.33 µM. For the same compound, the minimal effective concentration (HUVECs [2]; read-out: huvec.tlps.18hr POD) was 25.8 µM, the minimal effective concentration (HUVECs [2]; read-out: huvec.tta.18hr POD) was 100 µM and the minimal effective concentration (HUVECs [2]; read-out: huvec.ttl.18hr POD) was 1.22 µM.

For Oc1ccc(-c2ccc(Cl)cc2)cc1 [4'-OH PCB3], the viability at 0.01 µM (HUVECs [1]; [3]) was 86.4%, the activity at 0.01 µM (HUVECs [1]; [4]) was 85.6% and the activity at 0.01 µM (HUVECs [1]; [5]) was 96.8%. For the same compound, the activity at 0.01 µM (HUVECs [1]; [6]) was 96.6%, the viability at 0.1 µM (HUVECs [1]; [3]) was 96.6% and the activity at 0.1 µM (HUVECs [1]; [4]) was 95.3%. It also gave an activity at 0.1 µM (HUVECs [1]; [5]) of 115%, an activity at 0.1 µM (HUVECs [1]; [6]) of 97.7% and a viability at 1 µM (HUVECs [1]; [3]) of 97.8%. The activity at 1 µM (HUVECs [1]; [4]) was 97.4%, the activity at 1 µM (HUVECs [1]; [5]) was 107% and the activity at 1 µM (HUVECs [1]; [6]) was 102%. For the same compound, the viability at 10 µM (HUVECs [1]; [3]) was 92.7%, the activity at 10 µM (HUVECs [1]; [4]) was 86.8% and the activity at 10 µM (HUVECs [1]; [5]) was 95.9%. For the same compound, the activity at 10 µM (HUVECs [1]; [6]) was 92.6%, the viability at 100 µM (HUVECs [1]; [3]) was 73.5% and the activity at 100 µM (HUVECs [1]; [4]) was 36.5%. It also gave an activity at 100 µM (HUVECs [1]; [5]) of 11.1%, an activity at 100 µM (HUVECs [1]; [6]) of 80.7% and a minimal effective concentration (HUVECs [1]; [7]) of 7.01 µM. The minimal effective concentration (HUVECs [1]; [8]) was 3.9 µM, the minimal effective concentration (HUVECs [1]; [9]) was 11.2 µM and the minimal effective concentration (HUVECs [1]; [10]) was 6.91 µM. For the same compound, the viability at 0.01 µM (HUVECs [1]; [11]) was 86.4%, the viability at 0.1 µM (HUVECs [1]; [11]) was 96.6% and the viability at 1 µM (HUVECs [1]; [11]) was 97.8%. The viability at 10 µM (HUVECs [1]; [11]) was 93.3%, the viability at 100 µM (HUVECs [1]; [11]) was 77.9% and the minimal effective concentration (HUVECs [1]; [12]) was 7.01 µM. It also gave an activity at 0.01 µM (HUVECs [2]; [13]) of 101%, an activity at 0.01 µM (HUVECs [2]; [14]) of 106% and an activity at 0.01 µM (HUVECs [2]; [15]) of 113%. The activity at 0.01 µM (HUVECs [2]; [16]) was 119%, the activity at 0.1 µM (HUVECs [2]; [13]) was 94% and the activity at 0.1 µM (HUVECs [2]; [14]) was 89.7%. The activity at 0.1 µM (HUVECs [2]; [15]) was 88.3%, the activity at 0.1 µM (HUVECs [2]; [16]) was 93.3% and the activity at 1 µM (HUVECs [2]; [13]) was 93.7%. It also gave an activity at 1 µM (HUVECs [2]; [14]) of 76.2%, an activity at 1 µM (HUVECs [2]; [15]) of 98.5% and an activity at 1 µM (HUVECs [2]; [16]) of 102%. It also gave an activity at 10 µM (HUVECs [2]; [13]) of 72.2%, an activity at 10 µM (HUVECs [2]; [14]) of 66.1% and an activity at 10 µM (HUVECs [2]; [15]) of 68.8%. For the same compound, the activity at 10 µM (HUVECs [2]; [16]) was 71.7%, the activity at 100 µM (HUVECs [2]; [13]) was 76.3% and the activity at 100 µM (HUVECs [2]; [14]) was 34%. The activity at 100 µM (HUVECs [2]; [15]) was 11.6%, the activity at 100 µM (HUVECs [2]; [16]) was 8.84% and the minimal effective concentration (HUVECs [2]; read-out: huvec.mtl.18hr POD) was 1.21 µM. It also gave a minimal effective concentration (HUVECs [2]; read-out: huvec.tlps.18hr POD) of 0.51 µM, a minimal effective concentration (HUVECs [2]; read-out: huvec.tta.18hr POD) of 5.36 µM and a minimal effective concentration (HUVECs [2]; read-out: huvec.ttl.18hr POD) of 5.16 µM.
